In patent US20040005354A1, “Oral trimethobenzamide formulations and methods” (King Pharmaceuticals, Inc., priority 2002, published 2004):
Where two headings read alike, the source gives them in different places.

How the values were obtained:
[1] = Safety assessment (adverse events, laboratory tests) in the four-way crossover study; type: in vivo, human (healthy subjects)
Text: Seventy-four healthy, non-smoking, male & female subjects, 18-65 years old were enrolled in this study. A total of 68 subjects completed all the requirements of the protocol. There were no enrollment violations. However, nine of the 74 subjects began the study during the third period of the initial group of subjects. All 74 subjects who received at least one dose of study medication were included in the safety analysis.
This study was a single center, randomized, open-label, 4-way crossover study in healthy subjects. Dosing was administered in the fasted state. Seventy-four (74) subjects were randomized into the study. All seventy-four subjects received one or more doses of study medication and are therefore included in the safety assessment. On Treatment Day 1 of the first treatment period, each subject was randomized to receive one of four possible study treatment sequences. The treatment groups consisted of the four treatments administered sequentially as DCAB, ADBC, BACD or CBDA. These treatments are shown below.
A signed informed consent was obtained from each subject. For screening purposes, the following procedures were required of each subject and were performed by the clinical site within 30 days prior to the study: a complete physical examination including a medical history, vital signs, clinical laboratory safety tests on blood and urine, medications taken prior to and during the study, and a serum pregnancy test for female subjects.
During the treatments, temperature, blood pressure, heart rate and respiratory rate were monitored as a safety measure. A physical examination and clinical laboratory tests were repeated at the completion of the study. Subjects were observed and questioned throughout the study for the occurrence of any adverse events.
A total of 28 adverse events (AEs) were experienced; 27 were treatment emergent. Twenty-one (21) of these were assessed as related to study treatment. All related AEs are known to occur with trimethobenzamide and were primarily mild or moderate in intensity. One (1) severe AE occurred in one subject which was judged as unrelated to study treatment-severe pharyngitis. […] A summary of treatment emergent adverse events (AEs) is presented in Table 6 using the preferred medical term.

[2] = cited from earlier work

N-[2-(dimethylamino)-ethoxy]-3,4,5-trimethoxybenzamide hydrochloride [trimethobenzamide hydrochloride]
2: PARESTHESIA, subjects n ([1]; sequence B A C D (N = 18))
1: RASH, subjects n ([1]; sequence B A C D (N = 18)) | DIARRHEA, subjects n ([1]; sequence C B D A (N = 18)) | ERYTHEMA, EXTERNAL NOSE, subjects n ([1]; sequence C B D A (N = 18)) | HYPOTONIA, subjects n ([1]; sequence C B D A (N = 18)) | LEG CRAMPS, subjects n ([1]; sequence D C A B (N = 18)) | PARESTHESIA, subjects n ([1]; sequence D C A B (N = 18))
72.2%: Number of Subject With No AE, % ([1]; sequence D C A B (N = 18))
15 to 35 min: ONSET ([2]; IM)
3 to 4 h: DURATION ([2]; PO) | DURATION ([2]; Rect)
22.2%: Number of Subject With At Least one AE, % ([1]; sequence C B D A (N = 18))
2 to 3 h: DURATION ([2]; IM)
77.8%: Number of Subject With No AE, % ([1]; sequence C B D A (N = 18))
10 to 40 min: ONSET ([2]; PO) | ONSET ([2]; Rect)
0: PHARYNGITIS, subjects n ([1]; sequence B A C D (N = 18)) | ABDOMINAL PAIN, subjects n ([1]; sequence C B D A (N = 18)) | CONJUNCTIVITIS, subjects n ([1]; sequence C B D A (N = 18)) | DIZZINESS, subjects n ([1]; sequence C B D A (N = 18)) | EDEMA, PALMAR, subjects n ([1]; sequence C B D A (N = 18)) | ERYTHEMA, PALMAR, subjects n ([1]; sequence C B D A (N = 18)) | INJECTION SITE REACTION, subjects n ([1]; sequence C B D A (N = 18)) | LARYNGISMUS, subjects n ([1]; sequence C B D A (N = 18)) | LEG CRAMPS, subjects n ([1]; sequence C B D A (N = 18)) | NAUSEA AND VOMITING, subjects n ([1]; sequence C B D A (N = 18)) | NAUSEA, subjects n ([1]; sequence C B D A (N = 18)) | PARESTHESIA, subjects n ([1]; sequence C B D A (N = 18)) | PHARYNGITIS, subjects n ([1]; sequence C B D A (N = 18)) | RASH, subjects n ([1]; sequence C B D A (N = 18)) | ABDOMINAL PAIN, subjects n ([1]; sequence D C A B (N = 18)) | CONJUNCTIVITIS, subjects n ([1]; sequence D C A B (N = 18)) | DIARRHEA, subjects n ([1]; sequence D C A B (N = 18)) | DIZZINESS, subjects n ([1]; sequence D C A B (N = 18)) | EDEMA, PALMAR, subjects n ([1]; sequence D C A B (N = 18)) | ERYTHEMA, EXTERNAL NOSE, subjects n ([1]; sequence D C A B (N = 18)) | ERYTHEMA, PALMAR, subjects n ([1]; sequence D C A B (N = 18)) | HYPOTONIA, subjects n ([1]; sequence D C A B (N = 18)) | INJECTION SITE REACTION, subjects n ([1]; sequence D C A B (N = 18)) | LARYNGISMUS, subjects n ([1]; sequence D C A B (N = 18)) | NAUSEA AND VOMITING, subjects n ([1]; sequence D C A B (N = 18)) | NAUSEA, subjects n ([1]; sequence D C A B (N = 18)) | PHARYNGITIS, subjects n ([1]; sequence D C A B (N = 18)) | RASH, subjects n ([1]; sequence D C A B (N = 18))
27.8%: Number of Subject With At Least one AE, % ([1]; sequence D C A B (N = 18))
5.6%: RASH, subjects % ([1]; sequence B A C D (N = 18)) | DIARRHEA, subjects % ([1]; sequence C B D A (N = 18)) | ERYTHEMA, EXTERNAL NOSE, subjects % ([1]; sequence C B D A (N = 18)) | HYPOTONIA, subjects % ([1]; sequence C B D A (N = 18)) | LEG CRAMPS, subjects % ([1]; sequence D C A B (N = 18)) | PARESTHESIA, subjects % ([1]; sequence D C A B (N = 18))
0.0%: PHARYNGITIS, subjects % ([1]; sequence B A C D (N = 18)) | ABDOMINAL PAIN, subjects % ([1]; sequence C B D A (N = 18)) | CONJUNCTIVITIS, subjects % ([1]; sequence C B D A (N = 18)) | DIZZINESS, subjects % ([1]; sequence C B D A (N = 18)) | EDEMA, PALMAR, subjects % ([1]; sequence C B D A (N = 18)) | ERYTHEMA, PALMAR, subjects % ([1]; sequence C B D A (N = 18)) | INJECTION SITE REACTION, subjects % ([1]; sequence C B D A (N = 18)) | LARYNGISMUS, subjects % ([1]; sequence C B D A (N = 18)) | LEG CRAMPS, subjects % ([1]; sequence C B D A (N = 18)) | NAUSEA AND VOMITING, subjects % ([1]; sequence C B D A (N = 18)) | NAUSEA, subjects % ([1]; sequence C B D A (N = 18)) | PARESTHESIA, subjects % ([1]; sequence C B D A (N = 18)) | PHARYNGITIS, subjects % ([1]; sequence C B D A (N = 18)) | RASH, subjects % ([1]; sequence C B D A (N = 18)) | ABDOMINAL PAIN, subjects % ([1]; sequence D C A B (N = 18)) | CONJUNCTIVITIS, subjects % ([1]; sequence D C A B (N = 18)) | DIARRHEA, subjects % ([1]; sequence D C A B (N = 18)) | DIZZINESS, subjects % ([1]; sequence D C A B (N = 18)) | EDEMA, PALMAR, subjects % ([1]; sequence D C A B (N = 18)) | ERYTHEMA, EXTERNAL NOSE, subjects % ([1]; sequence D C A B (N = 18)) | ERYTHEMA, PALMAR, subjects % ([1]; sequence D C A B (N = 18)) | HYPOTONIA, subjects % ([1]; sequence D C A B (N = 18)) | INJECTION SITE REACTION, subjects % ([1]; sequence D C A B (N = 18)) | LARYNGISMUS, subjects % ([1]; sequence D C A B (N = 18)) | NAUSEA AND VOMITING, subjects % ([1]; sequence D C A B (N = 18)) | NAUSEA, subjects % ([1]; sequence D C A B (N = 18)) | PHARYNGITIS, subjects % ([1]; sequence D C A B (N = 18)) | RASH, subjects % ([1]; sequence D C A B (N = 18))
3: HEADACHE, subjects n ([1]; sequence C B D A (N = 18)) | HEADACHE, subjects n ([1]; sequence D C A B (N = 18))
16.7%: HEADACHE, subjects % ([1]; sequence C B D A (N = 18)) | HEADACHE, subjects % ([1]; sequence D C A B (N = 18))
